Source: publication PMC10541198, “Specific quinone reductase 2 inhibitors reduce metabolic burden and reverse Alzheimer’s disease phenotype in mice” (The Journal of Clinical Investigation, 2023)
Where “and” joins values, the source holds several entries; their conditions need not be identical. Equal entries are not always repeated.

Experiments:
C57BL/6 mice = assay: Delay fear conditioning, microinjection to hippocampal CA1; format: in vivo, mouse
Experimental: In order to evaluate the efficacy of some of the leading QR2is in vivo, we carried out double-blind experiments using 2 different modalities (Supplemental Methods), measuring memory that is dependent on different brain areas. First, cortical memory was tested using incidental novel taste learning (see Methods), in which an unfamiliar, but palatable and safe, taste is given for the first time, and the memory for this newly learned taste is then assessed 2 days later. This is done by measuring the volume of the taste consumed upon subsequent exposure to it ([32]) (Figure 4A). […] Next, hippocampal-dependent learning was evaluated using delay fear conditioning (DFC; see Methods) ([33]). Mice were cannulated to the CA1 region of the hippocampus and were microinjected with YB-537 (1 μL of 5 μM, Figure 4, D and H) or vehicle. […] In order to evaluate any possible effect of acute QR2i microinjection on metabolic stress in the mouse brain, ISR activation was measured by quantifying total and phosphorylated eukaryotic initiation factor 2 α (eIF2α) levels (Supplemental Figure 3A) and lipid peroxidation product, 4-hydroxynonenal (4-HNE; Supplemental Figure 3B), by immunoblot 3 hours after the injection.
DFC was done as previously described ([7]). Briefly, mice were given 2 minutes to explore the conditioning chambers, during which baseline freezing was measured. Then, a 20 second, 4 kHz, 80 dB tone was given, coterminating with the start of a 2 second, 0.5 mA foot-shock. This was repeated twice more in 1 minute intervals. Following the third and last bout, 1 minute was given before the animals were removed from the chambers. The next day, the animals were returned to the room under the same conditions and were placed back into the chambers, and freezing to the context was measured over the course of 5 minutes. The next day, the mice were brought to unfamiliar conditioning rooms and chambers. In this unfamiliar context, the protocol from the first day was repeated, except without the foot shocks. Freezing for the cue was recorded, starting from the sounding of the first tone. All measurements were taken with a Sentec stc-tb33usb-at camera, and analysis was done with Freeze Frame software (Actimetrics). […]
Mice were anesthetized under 2% isoflurane, using an induction box (HME109, Highland Medical Equipment). They were placed in a stereotaxic device (Kopf Stereotaxic Alignment System, model 1900) under continuous 1% isoflurane anesthesia. Guide cannulas were implanted bilaterally to CA1 (from bregma: −1.9 mm AP, ±1.4 mm, −1.6 mm DV), cemented to the skull and fitted with 28- gauge dummy cannulas e xt e ndi ng 0.2 mm beyond the tip of the 1.2 mm guide cannulas. The mice were allowed at least 7 days of r ecover y before e xpe r im e nt at ion. The QR2 inhibitor YB-537 was dissolved in saline (0.9%). A total of 1μL of 5μM of YB-537 or vehicle was infused bilaterally to CA1, via a 28- gauge infusion cannula projecting 0.4 mm (drug delivery depth bregma: […]) beyond the guide cannula, connected by polyethylene tubing to a 10μL s yr i nge (Hamilton) ove r the course of 1m i n. The injection cannula was […]
kept for 60s inside the guide cannula in order prevent osmotic seepage of the doses upward through the cannula tract. Twenty minutes following the injection, animals underwent delay fear conditioning.
Following experimentation, animals were killed, brains were sliced in coronal sections, and cannula implantation was validated by imaging.
Incidental Tast e Learning […]
neophobia is highly conserved across species, as it is the fi rst line of defense against potentially poisonous, newly discovered foodstuffs.
However, once a memory for the taste is formed and no associated ill effect is learned, the taste becomes familiar and the animal consumes it more freely, especially if it is a pleasant, palatable taste. Thus, the stronger the memory for the safe, palatable taste, the more likely the animal will consume it(32, 56). […]

Amyloid β 42 = Amyloid β 42 ELISA, whole brain soluble and insoluble fractions; format: in vivo, mouse; set-up: Sup. Fig. 6-6A, individual animal values / Sup. Fig. 6-6B, individual animal values / Sup. Fig. 6-6D, individual animal values / Sup. Fig. 6-6G, individual animal values / Sup. Fig. 6-6H, individual animal values: unit not given here; conditions: for Insoluble amyloid β 42 / Ratio of soluble- to insoluble amyloid β 42 / Soluble amyloid β 42: whole brain, 5xFAD 1 month
Experimental: Following completion of treatment with YB-537 or vehicle for 1 month in drinking water, mice were sacrificed, and brains were quickly removed and placed on ice. Brains were then bisected, and the cerebellum removed. Both hemispheres were then flash frozen in liquid nitrogen, with one hemisphere being used for Amyloid β 42 detection and the other used for WB. For Amyloid β 42 detection the hemisphere was first weighed, and then homogenised on ice using 1 mL of 0.1% Triton X-100 in TBS with complete protease inhibitor (Roche) and phosphatase inhibitor cocktail (Roche). Homogenates were then centrifuged at 100,000g for 1 h at 4° C, and supernatant containing t he soluble fraction of Amyloid β 42 was collected and stored at - 20° C overnight. The pellet, containing insoluble Amyloid β 42 was re - suspended in 1 mL of 5M guanidine HCl, placed on a rocker at RT f or 2h, and then stored overnight at 4° C, with later storage being done at -20° C. The insoluble fraction was then diluted 1:5 in TBS, and centrifuged for 30 min at 13,000g and 4° C. The resulting supernatant was then used to quantify the insoluble fraction. Protein determination was done on both soluble and insoluble fractions thus prepared, using a BCA kit (Thermo). Human Amyloid (aa1- 42) Quantikine ELISA Kit was then used as per the manufacturer’s instructions (R&D Systems, DAB142). Results obtained were then quantified as ng Amyloid β 42 / mL sample / brain hemisphere weight.
Experimental grouping was randomly allocated, in both rats and mice. The size for each group was based on previously published results by means of similar methods, with the use of an online power calculator (https://www.stat.ubc.ca/~rollin/stats/ssize/n2.html). Shapiro- Wilk normality tests were done for the collected data. Anal ysi s of normally distributed dat a was done using par am et ri c t ests (i .e. - unpaired students t-test, one-way ANOVA followed by Tukey’s or Sidak post hoc anal ys i s) and for data not normally

[1] = 5 μM to CA1, in % (unit assumed)

Cc1ccc(-c2cn3cccc(C)c3n2)cc1S(=O)(=O)N1CCNCC1 [YB-537]
inter-trial learning during conditioning (C57BL/6 mice; 5 μM to CA1, n=6): normal inter-trial learning | freezing during conditioning (individual mice) (C57BL/6 mice; 5 μM to CA1, Baseline, in % (unit assumed)): 2.45 and 0.22 and 3.23 and 4.78 and 9.01 and 1.89 | freezing during conditioning (individual mice) (C57BL/6 mice; 5 μM to CA1, CS/US 1, in % (unit assumed)): 13.08 and 8.81 and 18.16 and 10.01 and 26.70 and 2.54 | freezing during conditioning (individual mice) (C57BL/6 mice; 5 μM to CA1, CS/US 2, in % (unit assumed)): 20.03 and 15.78 and 28.12 and 17.97 and 27.02 and 2.19 | freezing during conditioning (individual mice) (C57BL/6 mice; 5 μM to CA1, CS/US 3, in % (unit assumed)): 24.88 and 20.00 and 35.58 and 21.40 and 33.02 and 2.33 | freezing in response to the context (individual mice) (C57BL/6 mice; [1]): 59.92 and 49.69 and 57.37 and 25.70 and 41.84 and 33.92 | freezing in response to the cue (individual mice) (C57BL/6 mice; [1]): 51.89 and 48.39 and 35.02 and 23.60 and 5.68 and 24.28 | Sup. Fig. 6-6A, individual animal values (Amyloid β 42; 5xFAD whole brain, all animals): 0.36 and 0.35 and 1.82 and 1.07 and 0.33 and 5.68 and 2.65 and 2.02 and 0.56 | Sup. Fig. 6-6B, individual animal values (Amyloid β 42; 5xFAD whole brain, all animals): 31.16 and 54.15 and 11052.63 and 8070.79 and 40.92 and 4330.77 and 6642.89 and 15767.97 and 26.71 | Sup. Fig. 6-6C, individual animal values (Amyloid β 42; 5xFAD whole brain, all animals, ratio of 6-6A to 6-6B values): 0.0114 and 0.0064 and 0.000165 and 0.000133 and 0.0080 and 0.0013 and 0.0004 and 0.000128 and 0.0210 | Sup. Fig. 6-6D, individual animal values (Amyloid β 42; 5xFAD whole brain, first subset of the 6-6A animals (sex not given)): 1.07 and 0.33 and 5.68 and 2.65 and 0.56 and 0.35 | Sup. Fig. 6-6F, individual animal values (Amyloid β 42; 5xFAD whole brain, first subset of the 6-6C animals (sex not given), ratio): 0.000133 and 0.0080 and 0.0013 and 0.0004 and 0.0210 and 0.0064 | Sup. Fig. 6-6G, individual animal values (Amyloid β 42; 5xFAD whole brain, second subset of the 6-6A animals (sex not given)): 2.02 and 0.36 and 1.82 | Sup. Fig. 6-6H, individual animal values (Amyloid β 42; 5xFAD whole brain, second subset of the 6-6B animals (sex not given)): 15767.97 and 31.16 and 11052.63 | Sup. Fig. 6-6I, individual animal values (Amyloid β 42; 5xFAD whole brain, second subset of the 6-6C animals (sex not given), ratio): 0.000128 and 0.0114 and 0.000165 | Insoluble amyloid β 42 (Amyloid β 42; both sexes): insignificantly reduced | Ratio of soluble- to insoluble amyloid β 42 (Amyloid β 42; both sexes): insignificantly increased | Soluble amyloid β 42 (Amyloid β 42; both sexes): insignificantly reduced | Insoluble amyloid β 42 (Amyloid β 42; female): insignificantly reduced | Soluble amyloid β 42 (Amyloid β 42; female): insignificantly reduced | Insoluble amyloid β 42 (Amyloid β 42; male): insignificantly reduced | Ratio of soluble- to insoluble amyloid β 42 (Amyloid β 42; male): insignificantly increased | Soluble amyloid β 42 (Amyloid β 42; male): insignificantly reduced
